Results published in PubChem BioAssay AID1963835 (Molecular Pharmacology Branch, DTP, NCI, 2024).

Test system: 699152-130-R-J1-PDC complex spheroid viability
Experiment: Anticancer human tumor 699152-130-R-J1-PDC patient-derived pancreatic carcinoma cell line growth inhibition [POLQ]
Conditions: for IC50: curve of first compound; for viability, T/C: stronger effect = lower value
Outline: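 Patient-derived tumour cells were co-cultured with HUVEC and mesenchymal stem cells as multicellular spheroids at 37 °C. They were treated with POLQ inhibitors (novobiocin, ART-558, RP6685) alone or combined with other agents. Top concentrations were at or near clinical Cmax (otherwise 10 microM; SN-38 at 1 microM), decreasing in half-log steps.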

[1] = second compound 0.0316 µM, first compound 0.0316 µM
[2] = second compound 0.0316 µM, first compound 0.1 µM
[3] = second compound 0.0316 µM, first compound 0.316 µM
[4] = second compound 0.0316 µM, first compound 1 µM
[5] = second compound 0.0316 µM, first compound 3.16 µM
[6] = second compound 0.0316 µM, first compound 10 µM
[7] = second compound 0.1 µM, first compound 0.0316 µM
[8] = second compound 0.1 µM, first compound 0.1 µM
[9] = second compound 0.1 µM, first compound 0.316 µM
[10] = second compound 0.1 µM, first compound 1 µM
[11] = second compound 0.1 µM, first compound 3.16 µM
[12] = second compound 0.1 µM, first compound 10 µM
[13] = second compound 0.316 µM, first compound 0.0316 µM
[14] = second compound 0.316 µM, first compound 0.1 µM
[15] = second compound 0.316 µM, first compound 0.316 µM
[16] = second compound 0.316 µM, first compound 1 µM
[17] = second compound 0.316 µM, first compound 3.16 µM
[18] = second compound 0.316 µM, first compound 10 µM
[19] = second compound 1 µM, first compound 0.0316 µM
[20] = second compound 1 µM, first compound 0.1 µM
[21] = second compound 1 µM, first compound 0.316 µM
[22] = second compound 1 µM, first compound 1 µM
[23] = second compound 1 µM, first compound 3.16 µM
[24] = second compound 1 µM, first compound 10 µM
[25] = second compound 3.16 µM, first compound 0.0316 µM
[26] = second compound 3.16 µM, first compound 0.1 µM
[27] = second compound 3.16 µM, first compound 0.316 µM
[28] = second compound 3.16 µM, first compound 1 µM
[29] = second compound 3.16 µM, first compound 3.16 µM
[30] = second compound 3.16 µM, first compound 10 µM
[31] = second compound 10 µM, first compound 0.0316 µM
[32] = second compound 10 µM, first compound 0.1 µM
[33] = second compound 10 µM, first compound 0.316 µM
[34] = second compound 10 µM, first compound 1 µM
[35] = second compound 10 µM, first compound 3.16 µM
[36] = second compound 10 µM, first compound 10 µM
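Further: spheroids exposed to agents for 7 days before viability reading.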
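Wherever viability, T/C is given: percent of DMSO vehicle control viability so 100% = vehicle and 0% = no viable signal.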

SMILES: Nc1ccn(C2OC(CO)C(O)C2(F)F)c(=O)n1 (centres undefined) + Nc1ccc(C#CCN(C(=O)Cc2ncc(C(F)(F)F)cc2C(F)(F)F)c2ccc(F)cc2)nn1
- IC50 (second compound 0.0316 µM): 476 nM
- IC50 (second compound 0.1 µM): 771 nM
- IC50 (second compound 0.316 µM): 1770 nM
- IC50 (second compound 1 µM): 2370 nM
- IC50 (second compound 3.16 µM): 1440 nM
- IC50 (second compound 10 µM): 2160 nM
- viability, T/C [1]: 71.5%
- viability, T/C [2]: 58.8%
- viability, T/C [3]: 50.5%
- viability, T/C [4]: 46.9%
- viability, T/C [5]: 50%
- viability, T/C [6]: 43%
- viability, T/C [7]: 78.4%
- viability, T/C [8]: 65.5%
- viability, T/C [9]: 52%
- viability, T/C [10]: 46%
- viability, T/C [11]: 55.6%
- viability, T/C [12]: 37.5%
- viability, T/C [13]: 81.3%
- viability, T/C [14]: 60.5%
- viability, T/C [15]: 55.9%
- viability, T/C [16]: 55.4%
- viability, T/C [17]: 49.6%
- viability, T/C [18]: 44.6%
- viability, T/C [19]: 79.2%
- viability, T/C [20]: 63.9%
- viability, T/C [21]: 57.4%
- viability, T/C [22]: 58.5%
- viability, T/C [23]: 51.5%
- viability, T/C [24]: 41%
- viability, T/C [25]: 84.2%
- viability, T/C [26]: 68.3%
- viability, T/C [27]: 55.2%
- viability, T/C [28]: 55.3%
- viability, T/C [29]: 49%
- viability, T/C [30]: 40%
- viability, T/C [31]: 103%
- viability, T/C [32]: 82.8%
- viability, T/C [33]: 63.1%
- viability, T/C [34]: 52.8%
- viability, T/C [35]: 50.9%
- viability, T/C [36]: 44.9%

SMILES: CC1COCCN1c1cc(C2(O)CC3CCC(C2)O3)c2cnn(-c3ccn[nH]3)c2n1 (centres undefined) + COC1C(OC(N)=O)C(O)C(Oc2ccc3c(O)c(NC(=O)c4ccc(O)c(CC=C(C)C)c4)c(=O)oc3c2C)OC1(C)C
- IC50 (second compound 0.0316 µM): 1360 nM
- IC50 (second compound 0.1 µM): 811 nM
- IC50 (second compound 0.316 µM): 1400 nM
- IC50 (second compound 1 µM): 1170 nM
- IC50 (second compound 3.16 µM): 939 nM
- IC50 (second compound 10 µM): 1440 nM
- viability, T/C [1]: 94.4%
- viability, T/C [2]: 80.1%
- viability, T/C [3]: 67.3%
- viability, T/C [4]: 51.5%
- viability, T/C [5]: 43%
- viability, T/C [6]: 34.2%
- viability, T/C [7]: 109%
- viability, T/C [8]: 79.4%
- viability, T/C [9]: 60.9%
- viability, T/C [10]: 46.8%
- viability, T/C [11]: 41.4%
- viability, T/C [12]: 34.2%
- viability, T/C [13]: 104%
- viability, T/C [14]: 84.8%
- viability, T/C [15]: 61%
- viability, T/C [16]: 52.1%
- viability, T/C [17]: 49%
- viability, T/C [18]: 34.5%
- viability, T/C [19]: 96.6%
- viability, T/C [20]: 80.7%
- viability, T/C [21]: 65.3%
- viability, T/C [22]: 50.2%
- viability, T/C [23]: 43.6%
- viability, T/C [24]: 40.1%
- viability, T/C [25]: 101%
- viability, T/C [26]: 83%
- viability, T/C [27]: 65%
- viability, T/C [28]: 45.8%
- viability, T/C [29]: 45.4%
- viability, T/C [30]: 34.9%
- viability, T/C [31]: 108%
- viability, T/C [32]: 83.4%
- viability, T/C [33]: 62.5%
- viability, T/C [34]: 55.3%
- viability, T/C [35]: 45.6%
- viability, T/C [36]: 36.3%
